Measured values published in US8748624B2, “Picolinamido-propanoic acid derivatives useful as glucagon receptor antagonists” (Janssen Pharmaceutica NV, priority 2011, dated 2014).
pKi: −log10 of the molar value. Like-named read-outs stand apart in the source and are kept apart here.

Legend:
[1] = molecular target: human glucagon receptor (GCGR) (Homo sapiens (Human), UniProt P47871); test: Inhibition of 125I-glucagon binding to membranes from HEK293 cells expressing the human glucagon receptor
Protocol: Inhibition ^125I-Glucagon Binding to Membranes from HEK293 Cells Expressing the Human Glucagon Receptor (GCGR)
Full-length human GCGR (Accession Number: NM000160) subcloned into pcDNA3.1 was stably transfected into HEK293 cells (hGluc-1 HEK) and maintained under G418 selection (500 μg/mL). Cell cultures were maintained in DMEM/F12 media supplemented with 10% FBS and 1% GlutaMax. Membranes were prepared from these cells as follows: cells were harvested from T225 flasks and re-suspended in hypotonic lysis buffer, 50 mM HEPES pH 7.4 supplemented with Complete Protease inhibitors (Boehringer Mannheim, Indianapolis, Ind.). Cells were dounced 20 times on ice and spun at 700×g to remove nuclei and unlysed cells. The resulting pellet was re-suspended in hypotonic lysis buffer and the above step was repeated. Supernatants from the low speed centrifugation were combined and subsequently spun at 100K×g for 1 hr at 4° C. and the resulting pellet was re-suspended in buffer containing 50 mM HEPES pH 7.4 and 10% sucrose and the protein concentration was adjusted at 1 mg/mL as determined in the BCA assay. Membranes were aliquoted and stored at −80° C. The binding assay was performed by a filtration method in a 384 well format. Membranes at a final protein concentration of 6 μg/well were incubated with ^125I-glucagon at 0.3 nM and in the presence of compound for 2 hours at room temperature in a total reaction volume of 40 μL per well. Assay buffer consisted of 50 mM HEPES, pH 7.4, 5 mM MgCl2, 1 mM CaCl2 and 0.2% BSA. 30 μL of the reaction was then transferred to PEI treated filter plates and followed by filter aspiration. Plates were then washed 5× and allowed to dry at room temperature overnight. The next day the bottom of the plate was covered with seal tape and scintillant was added. Total counts retained by the filters were quantified with a Top Count instrument. IC50's were generated by using a non-linear regression macro driven in Excel and converted to K's.

human GCGR = human GCGR (Homo sapiens (Human), UniProt P47871); test: Cellular functional assay, cAMP readout (glucagon-stimulated cAMP in HEK293 cells expressing human GCGR); format: cell-based; conditions: hGluc-1 HEK cells
human GCGR, sequence (P47871 26-477): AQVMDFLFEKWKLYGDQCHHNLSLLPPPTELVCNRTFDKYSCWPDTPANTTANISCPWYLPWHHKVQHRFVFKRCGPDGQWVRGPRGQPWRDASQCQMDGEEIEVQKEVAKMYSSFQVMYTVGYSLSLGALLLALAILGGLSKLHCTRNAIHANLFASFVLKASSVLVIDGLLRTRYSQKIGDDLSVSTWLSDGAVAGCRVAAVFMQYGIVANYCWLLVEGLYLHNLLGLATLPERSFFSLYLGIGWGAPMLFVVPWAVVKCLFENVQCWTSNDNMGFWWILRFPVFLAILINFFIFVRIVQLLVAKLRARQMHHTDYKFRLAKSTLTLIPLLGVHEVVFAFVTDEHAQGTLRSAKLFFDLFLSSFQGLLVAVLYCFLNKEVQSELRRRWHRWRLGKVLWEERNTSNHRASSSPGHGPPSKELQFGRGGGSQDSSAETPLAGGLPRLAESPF
Procedure, shortened: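 HEK293 cells stably transfected with full-length human GCGR were exposed to compound for 30 min before a 5-min challenge with […] (final) glucagon. Readout was TR-FRET (LANCE) cAMP versus standard curve; IC50s fitted by non-linear regression and converted to Ki values.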

[2] = membranes of hGluc-1 HEK cells, 125I-glucagon 0.3 nM, 2 hours room temperature, IC50 converted to Ki, average if tested more than once
[3] = LANCE TR-FRET, IC50 converted to Ki, average if tested more than once

human glucagon receptor (GCGR), sequence (P47871 26-477): as above

Compound | pKi [1, 2] | pKi (human GCGR; [3]) | pKi [1] | pKi ([1]; meta-substituted comparative compounds (Table 3), membranes of hGluc-1 HEK cells, 125I-glucagon 0.3 nM) | pKi (human GCGR; meta-substituted comparative compounds (Table 3))
O=C(O)CCNC(=O)c1ccc(-c2cc(C(F)(F)F)ccc2CNc2ccc(-c3ccc(F)cc3Cl)cc2)cn1 [Compound 23, 3-(5-(2-(((2′-chloro-4′-fluoro-[1,1′-biphenyl]-4-yl)amino)methyl)-5-(trifluoromethyl)phenyl)picolinamido)propanoic acid] | 7.58 | 6.89 |  |  | 
COc1ccc(-c2ccc(C(=O)NCCC(=O)O)nc2)c(CNc2ccc(-c3ccc(Cl)cc3Cl)cc2)c1 [Compound 60, 3-(5-(2-(((2′,4′-dichloro-[1,1′-biphenyl]-4-yl)amino)methyl)-4-methoxyphenyl)picolinamido)propanoic acid] | 6.71 | 5.86 |  |  | 
O=C(O)CCNC(=O)c1ccc(-c2cc(C(F)(F)F)ccc2CNc2ccc(-c3cccc(C(F)(F)F)c3Cl)cc2)cn1 [Compound 41, 3-(5-(2-(((2′-chloro-3′-(trifluoromethyl)-[1,1′-biphenyl]-4-yl)amino)methyl)-5-(trifluoromethyl)phenyl)picolinamido)propanoic acid] | 7.69 | 7.55 |  |  | 
O=C(O)CCNC(=O)c1ccc(-c2cc(F)c(F)cc2C(=O)Nc2ccc(-c3ccc(Cl)cc3Cl)cc2)cn1 [Compound 94, 3-(5-(2-((2′,4′-dichloro-[1,1′-biphenyl]-4-yl)carbamoyl)-4,5-difluorophenyl)picolinamido)propanoic acid] | 7.47 | 7.11 |  |  | 
CC(C)(C)c1ccc(-c2ccc(NCc3ccc(Cl)cc3-c3ccc(C(=O)NCCC(=O)O)nc3)cc2Cl)cc1 [Compound 168, 3-(5-(2-(((4′-(tert-butyl)-2-chloro-[1,1′-biphenyl]-4-yl)amino)methyl)-5-chlorophenyl)picolinamido)propanoic acid] | 7.42 | 6.43 |  |  | 
CC(Nc1ccc(-c2ccc(F)cc2)cc1)c1ccc(Cl)cc1-c1ccc(C(=O)NCCC(=O)O)nc1 (stereo not drawn) [Compound 155, 3-(5-(5-chloro-2-(1-((4′-fluoro-[1,1′-biphenyl]-4-yl)amino)ethyl)phenyl)picolinamido)propanoic acid] | 6.63 | 5.66 |  |  | 
O=C(O)CCNC(=O)c1ccc(-c2cc(Cl)ccc2CNc2ccc(-c3ccc(F)cc3F)c(Cl)c2)cn1 [Compound 63, 3-(5-(5-chloro-2-(((2-chloro-2′,4′-difluoro-[1,1′-biphenyl]-4-yl)amino)methyl)phenyl)picolinamido)propanoic acid] | 7.65 | 6.73 |  |  | 
O=C(O)CCNC(=O)c1ccc(-c2cc(F)c(F)cc2CNc2ccc(-c3ccc(Cl)cc3Cl)c(Cl)c2)cn1 [Compound 108, 3-(5-(4,5-difluoro-2-(((2,2′,4′-trichloro-[1,1′-biphenyl]-4-yl)amino)methyl)phenyl)picolinamido)propanoic acid] | 7.62 | 7.07 |  |  | 
O=C(O)CCNC(=O)c1ccc(-c2cc(Cl)ccc2CNc2ccc(-c3ccc(Cl)cc3Cl)cc2)cn1 [Compound 7, 3-(5-(5-chloro-2-(((2′,4′-dichloro-[1,1′-biphenyl]-4-yl)amino)methyl)phenyl)picolinamido)propanoic acid] | 7.65 | 7.35 |  |  | 
Cc1cc(-c2ccc(NCc3ccc(Cl)cc3-c3ccc(C(=O)NCCC(=O)O)nc3)cc2Cl)ccc1F [Compound 139, 3-(5-(5-chloro-2-(((2-chloro-4′-fluoro-3′-methyl-[1,1′-biphenyl]-4-yl)amino)methyl)phenyl)picolinamido)propanoic acid] | 7.54 | 6.92 |  |  | 
O=C(O)CCNC(=O)c1ccc(-c2cc(Cl)cc(CNc3ccc(-c4ccc(Cl)cc4)cc3)c2)cn1 [Compound M3, 3-(5-(3-chloro-5-(((4′-chloro-[1,1′-biphenyl]-4-yl)amino)methyl)phenyl)picolinamido)propanoic acid, reference compound] |  |  |  | < 5.87 | < 4.98
CN(Cc1ccc(Cl)cc1-c1ccc(C(=O)NCCC(=O)O)nc1)c1ccc(-c2ccc(Cl)cc2)cc1 [Compound 17, 3-(5-(5-chloro-2-(((4′-chloro-[1,1′-biphenyl]-4-yl)(methyl)amino)methyl)phenyl)picolinamido)propanoic acid] | 5.83 | < 4.98 |  |  | 
O=C(O)CCNC(=O)c1ccc(-c2cc(Cl)ccc2CNc2ccc(-c3ccc(F)c(F)c3)cc2)cn1 [Compound 136, 3-(5-(5-chloro-2-(((3′,4′-difluoro-[1,1′-biphenyl]-4-yl)amino)methyl)phenyl)picolinamido)propanoic acid] | 7.54 | 6.60 |  |  | 
O=C(O)CCNC(=O)c1ccc(-c2cc(C(F)(F)F)cc(C(F)(F)F)c2CNc2ccc(-c3ccc(Cl)cc3)cc2)cn1 [Compound 71, 3-(5-(2-(((4′-chloro-[1,1′-biphenyl]-4-yl)amino)methyl)-3,5-bis(trifluoromethyl)phenyl)picolinamido)propanoic acid] | 7.50 | 7.76 |  |  | 

Further lines, results first:

pKi [1, 2] | pKi (human GCGR; [3]) | pKi [1] | pKi ([1]; meta-substituted comparative compounds (Table 3), membranes of hGluc-1 HEK cells, 125I-glucagon 0.3 nM) | pKi (human GCGR; meta-substituted comparative compounds (Table 3)) | Compound
7.78 | 7.70 |  |  |  | O=C(O)CCNC(=O)c1ccc(-c2cc(C(F)(F)F)ccc2CNc2ccc(-c3ccc(C(F)(F)F)cc3Cl)c(Cl)c2)cn1 [Compound 42, 3-(5-(2-(((2,2′-dichloro-4′-(trifluoromethyl)-[1,1′-biphenyl]-4-yl)amino)methyl)-5-(trifluoromethyl)phenyl)picolinamido)propanoic acid]
7.48 | 6.53 |  |  |  | O=C(O)CCNC(=O)c1ccc(-c2cc(Cl)ccc2CNc2ccc(-c3ccc(Cl)cc3)c(F)c2)cn1 [Compound 91, 3-(5-(5-chloro-2-(((4′-chloro-2-fluoro-[1,1′-biphenyl]-4-yl)amino)methyl)phenyl)picolinamido)propanoic acid]
7.73 | 7.47 |  |  |  | Cc1cc(Cl)ccc1-c1ccc(NCc2ccc(Cl)cc2-c2ccc(C(=O)NCCC(=O)O)nc2)cc1 [Compound 148, 3-(5-(5-chloro-2-(((4′-chloro-2′-methyl-[1,1′-biphenyl]-4-yl)amino)methyl)phenyl)picolinamido)propanoic acid]
7.03 | 6.25 |  |  |  | O=C(O)CCNC(=O)c1ccc(-c2ccccc2CNc2ccc(-c3ccc(Cl)c(Cl)c3)cc2)cn1 [Compound 8, 3-(5-(2-(((3′,4′-dichloro-[1,1′-biphenyl]-4-yl)amino)methyl)phenyl)picolinamido)propanoic acid]
7.63 | 7.26 |  |  |  | O=C(O)CCNC(=O)c1ccc(-c2cc(F)c(F)cc2CNc2ccc(-c3cccc(C(F)(F)F)c3Cl)c(Cl)c2)cn1 [Compound 107, 3-(5-(2-(((2,2′-dichloro-3′-(trifluoromethyl)-[1,1′-biphenyl]-4-yl)amino)methyl)-4,5-difluorophenyl)picolinamido)propanoic acid]
7.63 | 7.52 |  |  |  | O=C(O)CCNC(=O)c1ccc(-c2cc(C(F)(F)F)ccc2CNc2ccc(-c3ccc(Cl)cc3F)c(Cl)c2)cn1 [Compound 37, 3-(5-(2-(((2,4′-dichloro-2′-fluoro-[1,1′-biphenyl]-4-yl)amino)methyl)-5-(trifluoromethyl)phenyl)picolinamido)propanoic acid]
 | 6.32 | 7.01 |  |  | COc1ccc(-c2ccc(C(=O)NCCC(=O)O)nc2)c(CNc2ccc(-c3ccc(Cl)c(Cl)c3)cc2)c1 [Compound 61, 3-(5-(2-(((3′,4′-dichloro-[1,1′-biphenyl]-4-yl)amino)methyl)-4-methoxyphenyl)picolinamido)propanoic acid]
